The compounds below were run on HIV (assay: HIV infection in cell culture (syncytium formation in HIV-infected PBLs, modified method of Pauwels et al.)). Details: Human immunodeficiency virus 1, Lymphocyte, 72 h; HIV-infected normal human blood lymphocytes (PBL's); concentration suppressing 50% (ca. 10 Syncytien) of virus-induced syncytia; microscopic read-out day 3 to 6 after infection, 37°C.
Type: cell-based
Method: Der HIV-Test wurde mit geringen Modifikationen nach der Methode von Pauwels et al. [vgl. Journal of Virological Methods 20, (1988), 309-321] durchgeführt.
Normale menschliche Blutlymphozyten (PBL's) wurden über Ficoll-Hypaque angereichert und im RPMI 1640, 20% fötales Kälberserum mit Phythaemagglutinin (90 µg/ml) und Interleukin-2 (40 U/ml) stimuliert. Zur Infektion mit dem infektiösen HIV wurden PBL's pelletiert und das Zellpellet wurde anschließend in 1 ml HIV-Virusadsorptionslösung suspendiert und 1 Stunde bei 37°C inkubiert.
Die Virusadsorptionslösung wurde zentrifugiert und das infizierte Zellpellet in Wachstumsmedium aufgenommen, so daß 1 x 10^5 Zellen pro ml eingestellt waren. Die derart infizierten Zellen wurden zu 1 x 10^4 Zellen/Napf in die Näpfe von 96er Mikrotiterplatten pipettiert.
Die erste vertikale Reihe der Mikrotiterplatte enthielt nur Wachstumsmedium und Zellen, die nicht infiziert, aber ansonsten genauso wie oben beschrieben, behandelt worden waren (Zellkontrolle). Die zweite vertikale Reihe der Mikrotiterplatte erhielt nur HIV-infizierte Zellen (Viruskontrolle) in Wachstumsmedium. Die übrigen Näpfe enthielten die erfindungsgemäßen Verbindungen in unterschiedlichen Konzentrationen, ausgehend von den Näpfen der 3. vertikalen Reihe der Mikrotiterplatte, von der die Prüfsubstanzen in 2er Schritten 2^10fach verdünnt wurden.
Die Testansätze wurden so lange bei 37°C inkubiert, bis in der unbehandelten Viruskontrolle die für das HIV typische Syncytienbildung auftrat (zwischen Tag 3 und 6 nach Infektion), die dann mikroskopisch ausgewertet wurde. In der unbehandelten Viruskontrolle resultierten unter diesen Testbedingungen etwa 20 Syncytien, während die unbehandelte Zellkontrolle keine Syncytien aufwies.
Die IC50-Werte wurden als die Konzentration der erfindungsgemäßen Verbindungen ermittelt, bei der 50% (ca. 10 Syncytien) der virusinduzierten Syncytien durch die Behandlung mit der erfindungsgemäßen Verbindung unterdruckt waren.

Question: For O=C(O)c1cn(-c2ccc(Cn3ccnn3)cc2)c2nc(N3CCN(c4cccc(Cl)c4)CC3)c(F)cc2c1=O [Beispiel 23], which IC50 is on record?
Answer: 400 nM

Question: O=C(O)c1cn(-c2ccc(Cn3ccnn3)cc2)c2nc(N3CCN(c4ccccc4)CC3)c(F)cc2c1=O [Beispiel 20, 6-Fluor-1,4-dihydro-4-oxo-7-(4-phenylpiperazin-1-yl)-1-[4-(1H-1,2,3-triazol-1-yl-methyl)-phenyl]-1,8-naphthyridin-3-carbonsäure] was tested. Which IC50 did it give?
Answer: 200 nM

Question: How did the IC50 turn out when CCOc1ccccc1N1CCN(c2c(F)cc3c(=O)c(C(=O)O)cn(-c4ccc(Cn5cncn5)cc4)c3c2F)CC1 [Beispiel 146] was run?
Answer: 700 nM

Question: How did the IC50 turn out when COc1cccc(N2CCN(c3cc4c(cc3F)c(=O)c(C(=O)O)cn4-c3ccc(Cn4ccnn4)cc3)CC2)c1 [Beispiel 8] was run?
Answer: 3000 nM

Question: How did the IC50 turn out when O=C(O)c1cn(-c2ccc(Cn3cncn3)cc2)c2nc(N3CCN(c4ccccc4)CC3)c(F)cc2c1=O [Beispiel 50, 6-Fluor-1,4-dihydro-4-oxo-7-(4-phenylpiperazin-1-yl)-1-[4-(1H-1,2,4-triazol-1-yl-methyl)phenyl]-1,8-naphthyridin-3-carbonsäure] was run?
Answer: 500 nM

Question: CCOC(=O)c1cn(-c2ccccc2Cn2nccn2)c2cc(N3CCN(c4cccc(Cl)c4)CC3)c(F)cc2c1=O [Beispiel 113] was tested. Which IC50 did it give?
Answer: 2000 nM

Question: For O=C(O)c1cn(-c2cccc(Cn3cncn3)c2)c2nc(N3CCN(c4ccc(Cl)cc4)CC3)c(F)cc2c1=O [Beispiel 92], which IC50 is on record?
Answer: 600 nM

Question: For O=C(O)c1cn(-c2ccc(Cn3nccn3)cc2)c2cc(N3CCN(c4cccc(Cl)c4)CC3)c(F)cc2c1=O [Beispiel 31], which IC50 is on record?
Answer: 700 nM

Question: How did the IC50 turn out when O=C(O)c1cn(-c2ccc(Cn3cncn3)cc2)c2nc(N3CCN(c4ccc(F)cc4)CC3)c(F)cc2c1=O [Beispiel 51] was run?
Answer: 200 nM

Question: With O=C(O)c1cn(-c2ccc(Cn3ccnn3)cc2)c2cc(N3CCN(c4cccc(Cl)c4)CC3)c(F)cc2c1=O [Beispiel 14] as the compound, how does the IC50 read?
Answer: 700 nM

Question: For O=C(O)c1cn(-c2cccc(Cn3ccnn3)c2)c2cc(N3CCN(c4cccc(Cl)c4)CC3)c(F)cc2c1=O [Beispiel 69], which IC50 is on record?
Answer: 700 nM

Question: For O=C(O)c1cn(-c2ccc(Cn3cncn3)cc2)c2cc(N3CCN(c4ccccc4)CC3)c(F)cc2c1=O [Beispiel 39, 6-Fluor-1,4-dihydro-4-oxo-7-(4-phenylpiperazin-1-yl)-1-[4-(1H-1,2,4-triazol-1-yl-methyl)phenyl]-3-chinolin-carbonsäure], which IC50 is on record?
Answer: 250 nM

— patent EP0612731B1, “Novel guinolone and naphthyridone derivatives” (BAYER AG, priority 1993, dated 1994)
